Laboratory results from patent US7977327B2, “Substituted pyrrolidine derivative” (Daiichi Sankyo Company, Limited, priority 2004, dated 2011).
≈ marks a conversion by molar mass, not a printed value. Marks after values point to notes of the source that are not given here.

Tests used:
S. aureus 870307 = assay: Antibacterial activity (MIC), standard method of the Japan Society of Chemotherapy; format: cell-based; conditions: Staphylococcus aureus; S. aureus 870307, quinolone-resistant; read-out: MIC
Experimental: (§1) The antimicrobial activities of the compounds of the present invention were determined according to a standard method designated by the Japan Society of Chemotherapy. The results are expressed by MIC (μg/mL) (Table 1). In Table 1, S. aureus 870307 and S. pneumonia J24 are quinolone-resistant bacteria.

P. Vulgalis 08601 = assay: as above; format: cell-based; conditions: P. Vulgalis 08601; read-out: MIC
Experimental: as §1

S. flexneri 2A 5503 = assay: as above; format: cell-based; conditions: Shigella flexneri, 2A5503, read-out: MIC
Experimental: as §1

E. faevcalis ATCC 19433 = assay: as above; format: cell-based; conditions: E. faevcalis ATCC 19433; read-out: MIC
Experimental: as §1

S. pneumoniae J24 = assay: as above; format: cell-based; conditions: Streptococcus pneumoniae; S. pneumoniae J24, quinolone-resistant; read-out: MIC
Experimental: as §1

E. coli NIHJ = assay: as above; format: cell-based; conditions: Escherichia coli; E. coli NIHJ; read-out: MIC
Experimental: as §1

S. pyogenes G-36 = assay: as above; format: cell-based; conditions: Streptococcus pyogenes, G36; S. pyogenes G-36; read-out: MIC
Experimental: as §1

K. pneumoniae TYPE I = assay: as above; format: cell-based; conditions: Klebsiella pneumoniae; K. pneumoniae TYPE I; read-out: MIC
Experimental: as §1

S. marcescens 10100 = assay: as above; format: cell-based; conditions: Serratia marcescens; S. marcescens 10100; read-out: MIC
Experimental: as §1

S. epidermidis 56500 = assay: as above; format: cell-based; conditions: Staphylococcus epidermidis; S. epidermidis 56500; read-out: MIC
Experimental: as §1

S. aureus FDA 209P = assay: as above; format: cell-based; conditions: Staphylococcus aureus, FDA209P; S. aureus FDA 209P; read-out: MIC
Experimental: as §1

S. maltophilia IID 1275 = assay: as above; format: cell-based; conditions: Stenotrophomonas maltophilia, IID1275; S. maltophilia IID 1275; read-out: MIC
Experimental: as §1

P. aeruginosa 32104 = assay: as above; format: cell-based; conditions: Pseudomonas aeruginosa; P. aeruginosa 32104; read-out: MIC
Experimental: as §1

P. aeruginosa 32121 = assay: as above; format: cell-based; conditions: Pseudomonas aeruginosa; P. aeruginosa 32121; read-out: MIC
Experimental: as §1

[1] = system: Chinese hamster lung (CHL/IU) cells; assay: Effect of inducing chromosomal aberration; format: cell-based; conditions: for Percentile induction of structural aberration (TA %): 24 hours, CHL/IU cells
Experimental: From each sample solution, samples to be tested having a concentration of 1, 3, 10, 30, 50, and 100 μg/mL (as reduced to free form) were prepared. As a negative control, 0.1 mol/L NaOH was employed.
Chinese hamster lung (CHL/IU) cells in logarithmic growth phase were employed. The cells were treated in a culture solution containing each sample to be tested for 24 hours. Subsequently, a chromosome specimen was prepared from the thus-treated cells. The culture solution employed was an Eagle's MEM (product of NISSUI PHARMACEUTICAL CO., LTD.) medium containing 15% fetal bovine serum (15% FBS-MEM).
In each sample concentration, 100 cells during metaphase were observed, to thereby record types and numbers of the chromosomal aberration.

SMILES	melting point [°C]	MIC (S. aureus 870307) [µg/mL]	MIC (P. Vulgalis 08601) [µg/mL]	MIC (S. flexneri 2A 5503) [µg/mL]	MIC (E. faevcalis ATCC 19433) [µg/mL]	MIC (S. pneumoniae J24) [µg/mL]	MIC (E. coli NIHJ) [µg/mL]	MIC (S. pyogenes G-36) [µg/mL]	MIC (K. pneumoniae TYPE I) [µg/mL]	MIC (S. marcescens 10100) [µg/mL]	MIC (S. epidermidis 56500) [µg/mL]	MIC (S. aureus FDA 209P) [µg/mL]	MIC (S. maltophilia IID 1275) [µg/mL]	MIC (P. aeruginosa 32104) [µg/mL]	MIC (P. aeruginosa 32121) [µg/mL]	Percentile induction of structural aberration (TA %) ([1]; 1 μg/mL) [%]	Percentile induction of structural aberration (TA %) ([1]; 3 μg/mL) [%]	Percentile induction of structural aberration (TA %) ([1]; 10 μg/mL) [%]	Percentile induction of structural aberration (TA %) ([1]; 30 μg/mL)	Percentile induction of structural aberration (TA %) ([1]; 50 μg/mL)	other results
Cc1c(N2C[C@@H](N)[C@@H](C(C)C)C2)c(F)cc2c(=O)c(C(=O)O)cn([C@@H]3C[C@@H]3F)c12 [Compound No. 16, 7-[(3S,4S)-3-Amino-4-isopropylpyrrolidine-1-yl]-6-fluoro-1-[(1R,2S)-2-fluorocyclopropyl]-8-methyl-1,4-dihydro-4-oxoquinoline-3-carboxylic acid]	124 to 127	0.1 (≈ 0.247 µM)	0.025 (≈ 0.0617 µM)	0.006 (≈ 0.0148 µM)	0.1 (≈ 0.247 µM)	0.05 (≈ 0.123 µM)	0.006 (≈ 0.0148 µM)	0.025 (≈ 0.0617 µM)	0.025 (≈ 0.0617 µM)	0.05 (≈ 0.123 µM)	0.025 (≈ 0.0617 µM)	0.006 (≈ 0.0148 µM)	0.05 (≈ 0.123 µM)	0.2 (≈ 0.493 µM)	0.1 (≈ 0.247 µM)	–	–	–	–	–	–
COc1c(N2C[C@@H](N)[C@@H](C3CC3)C2)c(F)cc2c(=O)c(C(=O)O)cn([C@@H]3C[C@@H]3F)c12 [Compound No. 8, 7-[(3S,4S)-3-Amino-4-cyclopropylpyrrolidin-1-yl]-6-fluoro-1-[(1R,2S)-2-fluorocyclopropyl]-8-methoxy-1,4-dihydro-4-oxoquinoline-3-carboxylic acid]	211 to 214	0.39 (≈ 0.93 µM)	0.025 (≈ 0.0596 µM)	0.025 (≈ 0.0596 µM)	0.1 (≈ 0.238 µM)	0.1 (≈ 0.238 µM)	0.006 (≈ 0.0143 µM)	0.1 (≈ 0.238 µM)	0.05 (≈ 0.119 µM)	0.1 (≈ 0.238 µM)	0.1 (≈ 0.238 µM)	0.012 (≈ 0.0286 µM)	0.2 (≈ 0.477 µM)	0.2 (≈ 0.477 µM)	0.1 (≈ 0.238 µM)	–	–	–	–	–	–
CC[C@H]1CN(c2c(F)cc3c(=O)c(C(=O)O)cn([C@@H]4C[C@@H]4F)c3c2C)C[C@H]1N [Compound No. 2, 7-[(3S,4S)-3-Amino-4-ethylpyrrolidin-1-yl]-6-fluoro-1-[(1R,2S)-2-fluorocyclopropyl]-8-methyl-1,4-dihydro-4-oxoquinoline-3-carboxylic acid]	–	0.39 (≈ 0.996 µM)	0.006 (≈ 0.0153 µM)	≤ 0.003	0.1 (≈ 0.255 µM)	0.025 (≈ 0.0639 µM)	≤ 0.003	0.025 (≈ 0.0639 µM)	0.025 (≈ 0.0639 µM)	0.025 (≈ 0.0639 µM)	0.025 (≈ 0.0639 µM)	0.006 (≈ 0.0153 µM)	0.05 (≈ 0.128 µM)	0.05 (≈ 0.128 µM)	0.025 (≈ 0.0639 µM)	1	1	1	2%	3%	Percentile induction of structural aberration (TA %) ([1]; 100 μg/mL): 8%; Significant increase in number of the cells exhibiting chromosomal aberration ([1]; at a concentration of up to 100 μg/mL): not observed
Cc1c(N2C[C@@H](N)[C@@H](C)C2)c(F)cc2c(=O)c(C(=O)O)cn(C3CC3)c12 [Comparative Compound C, reference compound]	–	1.56 (≈ 4.34 µM)	0.05 (≈ 0.139 µM)	0.025 (≈ 0.0696 µM)	0.2 (≈ 0.556 µM)	0.1 (≈ 0.278 µM)	0.012 (≈ 0.0334 µM)	0.2 (≈ 0.556 µM)	0.05 (≈ 0.139 µM)	0.2 (≈ 0.556 µM)	0.1 (≈ 0.278 µM)	0.025 (≈ 0.0696 µM)	0.2 (≈ 0.556 µM)	0.39 (≈ 1.09 µM)	0.2 (≈ 0.556 µM)	3	4	5	72* %	98* %	Percentile induction of structural aberration (TA %) ([1]; 100 μg/mL): TOX*^2; Observation of chromosomes (cytotoxicity) ([1]; at a concentration of 100 μg/mL): could not be observed
